Reference: ChEMBL document CHEMBL3885881, “DrugMatrix”
Several values for one entry are separate records, joined by “and”; a condition that tells them apart may be missing. Identical values can stand only once.

Organism: Rattus norvegicus
Experiment: DrugMatrix - Regimen: Daily Repeat
Type: toxicity, organism-based, Sprague-Dawley
Design: regimen Daily Repeat, gender Male, age 6-8 weeks
Conditions: in vivo, po, route oral GAVAGE, vehicle .5 % CMC; for ABSOLUTE BASOPHIL / ABSOLUTE EOSINOPHIL / ABSOLUTE LYMPHOCYTE / ABSOLUTE MONOCYTE / BASOPHIL / EOSINOPHIL / ERYTHROCYTE COUNT / HEMATOCRIT / HEMOGLOBIN / LEUKOCYTE COUNT / LYMPHOCYTE / MEAN CORPUSCULAR HEMOGLOBIN / MEAN CORPUSCULAR HEMOGLOBIN CONCENTRATION / MEAN CORPUSCULAR VOLUME / MONOCYTE / NEUTROPHIL / PLATELET COUNT / ABSOLUTE SEGMENTED NEUTROPHIL / NUCLEATED RED BLOOD CELLS: tissue Blood; for ALANINE AMINOTRANSFERASE / ALBUMIN / ALKALINE PHOSPHATASE / ASPARTATE AMINOTRANSFERASE / BLOOD UREA NITROGEN / CARBON DIOXIDE / CHLORIDE / CHOLESTEROL / CREATINE PHOSPHOKINASE / CREATININE / GLUCOSE / LACTATE DEHYDROGENASE / LIPASE / PHOSPHORUS / POTASSIUM / SODIUM / TOTAL BILIRUBIN / TOTAL PROTEIN / URIC ACID: tissue Plasma
[1] = 0 mg/kg, 120 h, dose level Control, time 5 day
[2] = 0 mg/kg, […], dose level Control, time 14 day
[3] = 10 mg/kg, 72 h, dose level Low, time 3 day
[4] = 10 mg/kg, 120 h, dose level Low, time 5 day

**Q.** What does the source list for CN(C)CCN(Cc1cccs1)c1ccccn1?
**A.** ABSOLUTE BASOPHIL [1]: 150 cells/µL; ABSOLUTE EOSINOPHIL [1]: 110 cells/µL; ABSOLUTE LYMPHOCYTE [1]: 13400 cells/µL; ABSOLUTE MONOCYTE [1]: 330 cells/µL; BASOPHIL [1]: 0.78%; EOSINOPHIL [1]: 0.62%; ERYTHROCYTE COUNT [1]: 7.12 x10E6/uL; HEMATOCRIT [1]: 46.95%; HEMOGLOBIN [1]: 14.55 G/DL; LEUKOCYTE COUNT [1]: 16.58 x10E3/uL; LYMPHOCYTE [1]: 80.95%; MEAN CORPUSCULAR HEMOGLOBIN [1]: 20.45 pg; MEAN CORPUSCULAR HEMOGLOBIN CONCENTRATION [1]: 31.02 G/DL; MEAN CORPUSCULAR VOLUME [1]: 65.97 fL; MONOCYTE [1]: 1.97%; NEUTROPHIL [1]: 14.12%; PLATELET COUNT [1]: 1229.25 x10E3/uL; ALANINE AMINOTRANSFERASE [1]: 45 u/L; ALBUMIN [1]: 3.8 G/DL; ALKALINE PHOSPHATASE [1]: 388 u/L; ASPARTATE AMINOTRANSFERASE [1]: 72.25 u/L; BLOOD UREA NITROGEN [1]: 15.75 mg/dL; CARBON DIOXIDE [1]: 37 mmol/L; CHLORIDE [1]: 107 MEQ/L; CHOLESTEROL [1]: 73 mg/dL; CREATINE PHOSPHOKINASE [1]: 525.5 u/L; CREATININE [1]: 0.5 mg/dL; GLUCOSE [1]: 179.5 mg/dL; LACTATE DEHYDROGENASE [1]: 216.25 u/L; LIPASE [1]: 22.5 u/L; PHOSPHORUS [1]: 11.97 mg/dL; POTASSIUM [1]: 6.4 MEQ/L; SODIUM [1]: 151.25 MEQ/L; TOTAL BILIRUBIN [1]: 0.3 mg/dL; TOTAL PROTEIN [1]: 6.55 G/DL; URIC ACID [1]: 1.35 mg/dL; ABSOLUTE BASOPHIL [2]: 120 cells/µL; ABSOLUTE EOSINOPHIL [2]: 40 cells/µL; ABSOLUTE LYMPHOCYTE [2]: 10100 cells/µL; ABSOLUTE MONOCYTE [2]: 190 cells/µL; BASOPHIL [2]: 1.1%; EOSINOPHIL [2]: 0.33%; ERYTHROCYTE COUNT [2]: 7.86 x10E6/uL; HEMATOCRIT [2]: 48.5%; HEMOGLOBIN [2]: 15.4 G/DL; LEUKOCYTE COUNT [2]: 11.73 x10E3/uL; LYMPHOCYTE [2]: 85.92%; MEAN CORPUSCULAR HEMOGLOBIN [2]: 19.55 pg; MEAN CORPUSCULAR HEMOGLOBIN CONCENTRATION [2]: 31.72 G/DL; MEAN CORPUSCULAR VOLUME [2]: 61.67 fL; MONOCYTE [2]: 1.6%; NEUTROPHIL [2]: 10.2%; PLATELET COUNT [2]: 1212.75 x10E3/uL; ALANINE AMINOTRANSFERASE [2]: 47 u/L; ALBUMIN [2]: 3.85 G/DL; ALKALINE PHOSPHATASE [2]: 356.5 u/L; ASPARTATE AMINOTRANSFERASE [2]: 87.75 u/L; BLOOD UREA NITROGEN [2]: 14.25 mg/dL; CARBON DIOXIDE [2]: 36.5 mmol/L; CHLORIDE [2]: 106.5 MEQ/L; CHOLESTEROL [2]: 63.25 mg/dL; CREATINE PHOSPHOKINASE [2]: 324.5 u/L; CREATININE [2]: 0.65 mg/dL; GLUCOSE [2]: 162.75 mg/dL; LACTATE DEHYDROGENASE [2]: 299 u/L; LIPASE [2]: 16.75 u/L; PHOSPHORUS [2]: 10.45 mg/dL; POTASSIUM [2]: 6.6 MEQ/L; SODIUM [2]: 152 MEQ/L; TOTAL BILIRUBIN [2]: 0.25 mg/dL; TOTAL PROTEIN [2]: 6.7 G/DL; URIC ACID [2]: 1.15 mg/dL; ABSOLUTE BASOPHIL [3]: 0 CELLS/uL; ABSOLUTE EOSINOPHIL [3]: 27 CELLS/uL; ABSOLUTE LYMPHOCYTE [3]: 9772.67 CELLS/uL; ABSOLUTE MONOCYTE [3]: 248.67 CELLS/uL; ABSOLUTE SEGMENTED NEUTROPHIL [3]: 751.67 CELLS/uL; BASOPHIL [3]: 0%; EOSINOPHIL [3]: 0.33%; ERYTHROCYTE COUNT [3]: 4.84 x10E6/uL; HEMATOCRIT [3]: 31.57%; HEMOGLOBIN [3]: 12.13 G/DL; LEUKOCYTE COUNT [3]: 10.8 x10E3/uL; LYMPHOCYTE [3]: 90.33%; MEAN CORPUSCULAR HEMOGLOBIN [3]: 25.1 pg; MEAN CORPUSCULAR HEMOGLOBIN CONCENTRATION [3]: 38.43 G/DL; MEAN CORPUSCULAR VOLUME [3]: 65.27 fL; MONOCYTE [3]: 2.33%; NEUTROPHIL [3]: 7%; NUCLEATED RED BLOOD CELLS [3]: 0 /100WBC; PLATELET COUNT [3]: 1127 x10E3/uL; ALANINE AMINOTRANSFERASE [3]: 57.33 u/L; ALBUMIN [3]: 3.9 G/DL; ALKALINE PHOSPHATASE [3]: 413.67 u/L; ASPARTATE AMINOTRANSFERASE [3]: 90.67 u/L; BLOOD UREA NITROGEN [3]: 16 mg/dL; CARBON DIOXIDE [3]: 30.33 mmol/L; CHLORIDE [3]: 98.33 MEQ/L; CHOLESTEROL [3]: 86 mg/dL; CREATINE PHOSPHOKINASE [3]: 368 u/L; CREATININE [3]: 0.25 mg/dL; GLUCOSE [3]: 147.33 mg/dL; LACTATE DEHYDROGENASE [3]: 103 u/L; LIPASE [3]: 10.67 u/L; PHOSPHORUS [3]: 10.53 mg/dL; POTASSIUM [3]: 5.88 MEQ/L; SODIUM [3]: 141.1 MEQ/L; TOTAL BILIRUBIN [3]: 0.23 mg/dL; TOTAL PROTEIN [3]: 6.23 G/DL; URIC ACID [3]: 0.43 mg/dL; ABSOLUTE SEGMENTED NEUTROPHIL [4]: 1373 CELLS/uL; BASOPHIL [4]: 0.85% and 0%; EOSINOPHIL [4]: 0.43% and 0.33%; ERYTHROCYTE COUNT [4]: 6.77 x10E6/uL and 5.32 x10E6/uL; HEMATOCRIT [4]: 44.08% and 33.07%; HEMOGLOBIN [4]: 13.62 G/DL and 12.93 G/DL; LEUKOCYTE COUNT [4]: 14.73 x10E3/uL and 11.23 x10E3/uL; LYMPHOCYTE [4]: 80.67% and 87%; MEAN CORPUSCULAR HEMOGLOBIN [4]: 20.1 pg and 24.37 pg; MEAN CORPUSCULAR HEMOGLOBIN CONCENTRATION [4]: 30.93 G/DL and 39.13 G/DL; MEAN CORPUSCULAR VOLUME [4]: 65 fL and 62.23 fL; MONOCYTE [4]: 2.75% and 0.33%; NEUTROPHIL [4]: 13.88% and 12.33%; NUCLEATED RED BLOOD CELLS [4]: 0 /100WBC; PLATELET COUNT [4]: 1086.75 x10E3/uL and 1423 x10E3/uL; ALANINE AMINOTRANSFERASE [4]: 52.75 u/L and 43 u/L; ALBUMIN [4]: 3.67 G/DL and 4 G/DL; ALKALINE PHOSPHATASE [4]: 395.75 u/L and 410 u/L; ASPARTATE AMINOTRANSFERASE [4]: 91 u/L and 82.67 u/L; BLOOD UREA NITROGEN [4]: 13.75 mg/dL and 14.67 mg/dL; CARBON DIOXIDE [4]: 36.75 mmol/L and 34.67 mmol/L; CHLORIDE [4]: 105.75 MEQ/L and 99.33 MEQ/L; CHOLESTEROL [4]: 84.75 mg/dL and 72 mg/dL; CREATINE PHOSPHOKINASE [4]: 591 u/L and 571.33 u/L; CREATININE [4]: 0.4 mg/dL and 0.23 mg/dL; GLUCOSE [4]: 181.5 mg/dL and 137.33 mg/dL; LACTATE DEHYDROGENASE [4]: 125.75 u/L and 163.67 u/L; LIPASE [4]: 18.5 u/L and 7.33 u/L; PHOSPHORUS [4]: 11.68 mg/dL and 12.63 mg/dL; POTASSIUM [4]: 6.62 MEQ/L and 6.41 MEQ/L; SODIUM [4]: 151 MEQ/L and 143.33 MEQ/L; TOTAL BILIRUBIN [4]: 0.28 mg/dL and 0.13 mg/dL; TOTAL PROTEIN [4]: 6.15 G/DL and 6.1 G/DL; URIC ACID [4]: 1.28 mg/dL and 0.87 mg/dL
